Where two headings read alike, the source gives them in different places.
Columns and labels:
hypoxic cells = conditions: Teicher et al; cited from earlier work
[1] = tested on: L1210 cells, cDDP sensitive line; assay: Toxicity in cisDDP-sensitive L1210 cells; format: cell-based; conditions: read-out: ID50 (the source's name)
Source text: (§1) Patients become resistant to cisplatin (cisDDP) and to many related drugs.

[2] = tested on: Chinese hamster ovary (CHO) cells; assay: Toxicity in hypoxic and aerated CHO cells (plating efficiency/survival); format: cell-based; conditions: for approximate order of hypoxic toxicity of platinum complexes: hypoxia
Description: The toxicity of the invention compounds with respect to Chinese hamster ovary (CHO) cells was compared in air and in nitrogen induced hypoxia as described by Moore, B. A., et al, Radiation Research (1976) 67:459-478. The radiosensitizing ligands, or cis or transdichlorodiamine platinum II (DDP) or the . bisubstituted platinum complexes, PtCl2 (L)2, were used as controls.
The cells were carried in MEM a medium with 10% fetal calf serum, and plating efficiencies were determined on the seventh day after plating.
In similar experiments at 100 mM/dm^3, MISO and trans-[PtCl2 (miso)2 ] show no toxicity. Survival rates for trans-DDP and monoammine were 0.2 and 0.1 respectively.
Using 100 mM levels, mono-6NQ caused plating efficiency to drop to 0 after an hour, while 6NQ had no effect after 3 hours.

[3] = tested on: L1210 cells, cDDP resistant line; assay: Toxicity in cisDDP-resistant L1210 cells (cross-resistance); format: cell-based; conditions: for IC50: L1210, cDDP resistant line, read-out: ID50 (the source's name)
Source text: as §1

KHT tumor model = conditions: 200 mg/kg, 0.5 or 1 hour prior to X-irradiation; FIG. 6
plasmid pSV2-gpt DNA = assay: Binding to DNA by inhibition of restriction enzyme (BamHI) cleavage of plasmid DNA; format: biochemical; design: inhibition of BamHI cleavage / inhibition of cleavage with BamHI: unit of the concentration uncertain
Description: The ability of the invention compounds to bind DNA was tested using an assay which is based on inhibition of the ability of restriction enzymes to cleave the complexed DNA. The substrate in the assay was the plasmid pSV2-gpt (Mulligan, R., et al Science (1980) 209:1422-1427). After growth in E. coli. this 5.2 kb plasmid was extracted and linearized using PvuII. Cleavage of the extracted linearized segment by BamHI or EcoRI results in two fragments per enzyme. Inhibition of this cleavage by test compounds provides an assay method for binding of the test compounds.
In the assay, DNA (20 mg/ml) in 100 mM Tris-HCl, 1 mM EDTA, pH 8, was treated with the test compounds at approximately 100 mM for 1 hr at 37° C. Unbound drug was then removed using a G-50 Sephadex spin column (Pharmacia).
To 30 mM of the treated DNA, 23.5 ml of a buffer solution containing 0.33 M Tris-acetate, pH 7.9, 0.66 M potassium acetate, 0.10 M dithiothreitol, and 1 mg/ml BSA, along with 10 units of enzyme, were added. Enzyme activity was stopped using 1 ml 0.5 M EDTA after 30 min at 37° C. Tracking 0.25% bromophenol blue, 0.25% xylene cyanol in 30% glycerol water) was added, and 10 ml of the resulting solution loaded onto a 1% agarose gel made with E buffer (0.04 M Tris, 5 mM sodium acetate; 1 mM EDTA, pH 7.8) and subjected to horizontal electrophoresis. The slab gel was stained with aqueous ethidium bromide solution (1 ng/ml) and photographed under UV light.
Inhibition of the restriction enzyme cleavage was assessed qualitatively by noting the relative proportion of bands, or quantitatively by analyzing densitometric scans of the negatives of the recorded pictures.

CHO cells = assay: Radiosensitization of CHO cells (enhancement ratio); format: cell-based, Chinese hamster; conditions: Table 1; 10 mmol/dm^3
Description: Radiosensitization of CHO cells was determined as described by Moore, B. A., et al, sucra, at 4° C., except that the cells were incubated with complex for 1 hr at 37° C. to allow binding to DNA prior to radiation. A Picker X-ray source (250 kVp, 1.7 mm Cu) was used. As with the toxicity studies, cells were carried, irradiated, and plated in MEM a medium with 10% fetal calf serum, and plating efficiencies were determined on the seventh day after plating. Enhancement ratios (ER) were calculated from the doses required to reduce survival to 1%.

DNA of CHO cells = assay: Platinum bound to DNA extracted from whole CHO cells, atomic absorption; format: cell-based, Chinese hamster; design: dose or concentration left out as unconfirmed; conditions: 1-2 hr exposure
Source text: Though the results of this assay were erratic they establish that the Pt complexes cross cell membranes and bind to DNA in mammalian cells.

cancer = conditions: cited from earlier work

Molecule	killing of hypoxic cells / toxicity toward oxygenated cells (hypoxic cells)	IC50 ([1]; listed as trans mono MISO) [mM]	toxicity compared with other isomer ([2]; 100 mM/dm^3, FIG. 1)	approximate order of hypoxic toxicity of platinum complexes [2]	IC50 [3] [mM]	radiosensitization in vivo (KHT tumor model)	inhibition of BamHI cleavage (plasmid pSV2-gpt DNA; 40 (unit uncertain)) [%]	binding to DNA as indicated by enzyme inhibition (plasmid pSV2-gpt DNA; 1 hr at 37° C.)	ER (CHO cells)	IC50 [1] [mM]	toxicity compared with the compounds of the invention ([2]; 100 mM/dm^3 experiments)	platinum bound to the extracted DNA (DNA of CHO cells) [ng Pt/10^6 cells]	Ratio (ID50 cDDP resistant/cDDP sensitive) ([3]; L1210 cells)	effectiveness in sensitive versus resistant cells ([3]; more effective in "sensitive" cells) [×]	antineoplastic activity (cancer; literature, 1969)	usefulness in treatment of cancer (cancer; testicular cancer versus other sites)
mono-substituted platinum complex of 1,2-diamino-4-nitrobenzene [Plato]	high capacity for killing of hypoxic cells and less toxicity toward oxygenated cells															
COCC(O)Cn1cc[n+]([Pt-2]([NH3+])([Cl])[Cl])c1[N+](=O)[O-] (stereo not drawn) [trans-mono-MISO, PtCl2 (NH3) (misonidazole)]		6.5	trans isomer is more toxic than cis	cis-DDP ff trans-mono-MISO f monoammine Z cis-mono-MISO f trans-DDP f mono-METRO Z mono-NI f mono-ANT	18.6	enhance the effect of the X-rays										
N.N.[Cl][Pt][Cl] [cis-DDP, cis[PtCl2 (NH3)2]]				cis-DDP ff trans-mono-MISO f monoammine Z cis-mono-MISO f trans-DDP f mono-METRO Z mono-NI f mono-ANT	5		30	binds much more strongly than the monoammine	1.3	0.1	somewhat more toxic than the compounds of the invention	6	50	50	shown to have antineoplastic activity	useful in the treatment of testicular cancer, but less so in treatment of cancers at other sites

From patent publication US5026694A, “Platinum complexes with one radiosensitizing ligand” (priority 1989, dated 1991)
